# In patent publication US10729785B2, “Particles comprising protamine and RNA in combination with endosome destabilizing agents” (BioNTech SE, priority 2014, dated 2020):
# System: fresh human red blood cells
# Assay: Validation of EDA: lysis of red blood cells at acidic pH (OD 405 nm of supernatant as surrogate of hemoglobin content)
# Assay type: cell-based
# Details: pH below 6, 7 hours; for damage of red blood cells / destabilization of cell membranes (OD 405 nm, hemoglobin content): 6 micrograms of peptide, 3 million human red blood cells in PBS, 37° C.
sequence,measurement,setting,value
GLFEAIEGFIENGWEGMIDGWYG [peptide 1],"damage of red blood cells / destabilization of cell membranes (OD 405 nm, hemoglobin content)",,damages red blood cells
"GLFEAIEGFIENGWEGLAEALAEALEALAAGGSC (Peptide 2) [Peptide derived from Influenza virus hemagglutinin, used as endosome destabilizing agent]","damage of red blood cells / destabilization of cell membranes (OD 405 nm, hemoglobin content)",,damages red blood cells
same,relative efficacy in damaging red blood cells,peptide 2 compared with peptide 1,more efficacious than peptide 1
